For experiment [1], the target named is Sodium channel protein type 8 subunit alpha (Homo sapiens) (UniProt Q9UQD0). Nature of the experiment: Antagonist activity at human Nav1.6 expressed in HEK293T cells assessed as inhibition of VTD-induced peak current at 1 uM by whole cell patch clamp method relative to control. The experiment is classed as cell-based. The note with it: HEK-293T.
Experiment [2] shares this target. Nature of the experiment: Antagonist activity at human Nav1.6 expressed in HEK293T cells assessed as inhibition of VTD-induced sustained current at 1 uM by whole cell patch clamp method relative to control. The format is cell-based. The settings on record: HEK-293T. For orientation: Patch clamp records ionic current or voltage across a cell membrane.
Experiment [3] shares this target. Nature of the experiment: Antagonist activity at human Nav1.6 expressed in HEK293T cells assessed as inhibition of VTD-induced tail current at 1 uM at holding potential of -100mV by whole cell patch clamp method relative to control. The settings on record: HEK-293T. The format is cell-based.
Experiment [4] addresses Sodium channel protein type 9 subunit alpha (Homo sapiens) (UniProt Q15858). The experiment in a line: Antagonist activity at human Nav1.7 expressed in HEK293T cells assessed as inhibition of VTD-induced peak current at 1 uM by whole cell patch clamp method relative to control. The experiment is classed as cell-based. The settings on record: HEK-293T.
Experiment [5] has the same target. Nature of the experiment: Antagonist activity at human Nav1.7 expressed in HEK293T cells assessed as inhibition of VTD-induced sustained current at 1 uM by whole cell patch clamp method relative to control. The note with it: HEK-293T. The format is cell-based.
Experiment [6] shares this target. Nature of the experiment: Antagonist activity at human Nav1.7 expressed in HEK293T cells assessed as inhibition of VTD-induced tail current at 1 uM at holding potential of -100mV by whole cell patch clamp method relative to control. The experiment is classed as cell-based. The note with it: HEK-293T.
The species named for another experiment is Mus musculus. Nature of the experiment: Antagonist activity at VSSC in mouse Neuro2a cells assessed as inhibition of peak current at holding potential of -100mV at 100 nM by patch-clamp method. The format is cell-based.
In experiment [7] the target is T1, Sodium channel protein type 2 subunit alpha (Homo sapiens, UniProt Q99250). Nature of the experiment: Antagonist activity at human Nav1.2 expressed in HEK293T cells assessed as inhibition of VTD-induced sustained current by whole cell patch clamp method relative to control. The experiment is classed as cell-based, HEK-293T. The note with it: for inhibition: HEK-293T.

Experiment [8] concerns the target T1, Sodium channel protein type 2 subunit alpha. Nature of the experiment: Antagonist activity at human Nav1.2 expressed in HEK293T cells assessed as inhibition of VTD-induced tail current by whole cell patch clamp method relative to control. The experiment is classed as cell-based, HEK-293T. The note with it: for inhibition: HEK-293T.
For experiment [9] the target is unchanged. The experiment in a line: Inhibition of Nav1.2 (unknown origin) by cell based assay.
Experiment [10] shares this target. The experiment in a line: Antagonist activity at human Nav1.2 expressed in HEK293T cells assessed as inhibition of VTD-induced peak current up to 10 nM by whole cell patch clamp method relative to control. The experiment is classed as cell-based. The note with it: HEK-293T.
Experiment [11] has the same target. The experiment in a line: Ratio of IC50 for Nav1.2 (unknown origin) by cell based assay to IC50 for human Nav1.2 expressed in HEK293T cells assessed as inhibition of VTD-induced tail current.
The target in experiment [12] is Sodium channel protein type 8 subunit alpha (Homo sapiens) (UniProt Q9UQD0). The settings on record: HEK-293T, 30 nM.
Description: Antagonist activity at human Nav1.6 expressed in HEK293T cells assessed as inhibition of VTD-induced peak current at 30 nM by whole cell patch clamp method relative to control
Experiment [13] has the same target. The settings on record: HEK-293T, 30 nM. The source holds these as a separate data set.
Description: Antagonist activity at human Nav1.6 expressed in HEK293T cells assessed as inhibition of VTD-induced sustained current at 30 nM by whole cell patch clamp method relative to control
Experiment [14] has the same target. The settings on record: HEK-293T, 30 nM. This is another data set of the same source.
Description: Antagonist activity at human Nav1.6 expressed in HEK293T cells assessed as inhibition of VTD-induced tail current at 30 nM at holding potential of -100mV by whole cell patch clamp method relative to control
Experiment [15] has as its target Sodium channel protein type 9 subunit alpha (Homo sapiens) (UniProt Q15858). The settings on record: HEK-293T, 30 nM.
Description: Antagonist activity at human Nav1.7 expressed in HEK293T cells assessed as inhibition of VTD-induced peak current at 30 nM by whole cell patch clamp method relative to control
Experiment [16] has the same target. The note with it: HEK-293T, 30 nM. This is another data set of the same source.
Description: Antagonist activity at human Nav1.7 expressed in HEK293T cells assessed as inhibition of VTD-induced sustained current at 30 nM by whole cell patch clamp method relative to control
Experiment [17] shares this target. The settings on record: HEK-293T, 30 nM. This is another data set of the same source.
Description: Antagonist activity at human Nav1.7 expressed in HEK293T cells assessed as inhibition of VTD-induced tail current at 30 nM at holding potential of -100mV by whole cell patch clamp method relative to control
Experiment [18] concerns the target T1, Sodium channel protein type 2 subunit alpha. The experiment in a line: Ratio of IC50 for Nav1.2 (unknown origin) by cell based assay to IC50 for human Nav1.2 expressed in HEK293T cells assessed as inhibition of VTD-induced sustained current.

The source made the active and inactive calls. The rule behind the calls is not given here.

Sequence of Sodium channel protein type 8 subunit alpha (Homo sapiens) (Q9UQD0 whole entry, looked up): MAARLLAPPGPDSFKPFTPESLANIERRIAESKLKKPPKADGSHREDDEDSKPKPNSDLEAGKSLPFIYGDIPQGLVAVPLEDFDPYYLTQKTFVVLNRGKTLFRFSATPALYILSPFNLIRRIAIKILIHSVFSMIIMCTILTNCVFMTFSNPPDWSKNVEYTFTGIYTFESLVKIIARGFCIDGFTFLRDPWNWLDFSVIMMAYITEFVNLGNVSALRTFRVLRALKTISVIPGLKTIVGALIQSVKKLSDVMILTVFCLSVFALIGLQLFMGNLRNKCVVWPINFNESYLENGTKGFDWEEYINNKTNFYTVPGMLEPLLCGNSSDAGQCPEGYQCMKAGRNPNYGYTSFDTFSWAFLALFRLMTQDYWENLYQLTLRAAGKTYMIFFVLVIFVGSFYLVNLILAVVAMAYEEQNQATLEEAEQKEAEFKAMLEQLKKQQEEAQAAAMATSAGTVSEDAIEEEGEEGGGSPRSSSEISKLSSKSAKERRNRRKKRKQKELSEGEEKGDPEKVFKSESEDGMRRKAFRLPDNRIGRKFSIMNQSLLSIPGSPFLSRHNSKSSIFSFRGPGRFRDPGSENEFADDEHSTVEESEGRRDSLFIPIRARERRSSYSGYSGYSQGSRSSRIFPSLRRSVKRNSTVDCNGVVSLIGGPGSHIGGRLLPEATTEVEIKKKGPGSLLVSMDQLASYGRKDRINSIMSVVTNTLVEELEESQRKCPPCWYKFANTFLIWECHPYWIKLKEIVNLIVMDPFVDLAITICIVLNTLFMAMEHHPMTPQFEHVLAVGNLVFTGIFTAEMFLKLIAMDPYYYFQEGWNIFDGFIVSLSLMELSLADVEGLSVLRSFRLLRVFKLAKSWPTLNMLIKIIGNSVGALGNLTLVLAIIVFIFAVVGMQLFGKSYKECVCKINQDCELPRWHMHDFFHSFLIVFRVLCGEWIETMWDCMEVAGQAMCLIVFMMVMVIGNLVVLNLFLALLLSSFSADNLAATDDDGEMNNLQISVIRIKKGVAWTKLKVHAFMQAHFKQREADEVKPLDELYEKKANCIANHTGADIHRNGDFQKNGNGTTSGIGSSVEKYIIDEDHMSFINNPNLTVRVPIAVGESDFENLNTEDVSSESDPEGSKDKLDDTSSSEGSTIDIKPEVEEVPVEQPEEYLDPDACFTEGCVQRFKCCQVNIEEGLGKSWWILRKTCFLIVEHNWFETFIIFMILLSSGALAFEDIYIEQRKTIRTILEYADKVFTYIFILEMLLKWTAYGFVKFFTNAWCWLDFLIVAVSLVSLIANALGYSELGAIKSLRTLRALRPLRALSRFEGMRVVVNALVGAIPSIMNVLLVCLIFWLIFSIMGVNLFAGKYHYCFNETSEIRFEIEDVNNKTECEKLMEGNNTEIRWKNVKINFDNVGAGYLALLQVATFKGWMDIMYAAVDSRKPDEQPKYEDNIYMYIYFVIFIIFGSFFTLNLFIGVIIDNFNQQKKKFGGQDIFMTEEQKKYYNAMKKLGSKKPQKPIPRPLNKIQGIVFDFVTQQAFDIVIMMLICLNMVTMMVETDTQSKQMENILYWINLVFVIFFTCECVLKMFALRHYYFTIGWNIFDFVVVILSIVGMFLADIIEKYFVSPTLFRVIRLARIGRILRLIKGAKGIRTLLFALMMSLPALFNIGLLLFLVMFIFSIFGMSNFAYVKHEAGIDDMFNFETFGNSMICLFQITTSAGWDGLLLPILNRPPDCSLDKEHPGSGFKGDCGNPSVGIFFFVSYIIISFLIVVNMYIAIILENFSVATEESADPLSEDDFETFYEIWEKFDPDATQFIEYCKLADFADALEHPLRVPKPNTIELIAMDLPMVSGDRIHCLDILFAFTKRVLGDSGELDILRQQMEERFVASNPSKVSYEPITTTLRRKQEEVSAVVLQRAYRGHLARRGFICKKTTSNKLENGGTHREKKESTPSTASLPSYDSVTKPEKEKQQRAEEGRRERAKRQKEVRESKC
Sequence of Sodium channel protein type 9 subunit alpha (Homo sapiens) (Q15858 whole entry, looked up): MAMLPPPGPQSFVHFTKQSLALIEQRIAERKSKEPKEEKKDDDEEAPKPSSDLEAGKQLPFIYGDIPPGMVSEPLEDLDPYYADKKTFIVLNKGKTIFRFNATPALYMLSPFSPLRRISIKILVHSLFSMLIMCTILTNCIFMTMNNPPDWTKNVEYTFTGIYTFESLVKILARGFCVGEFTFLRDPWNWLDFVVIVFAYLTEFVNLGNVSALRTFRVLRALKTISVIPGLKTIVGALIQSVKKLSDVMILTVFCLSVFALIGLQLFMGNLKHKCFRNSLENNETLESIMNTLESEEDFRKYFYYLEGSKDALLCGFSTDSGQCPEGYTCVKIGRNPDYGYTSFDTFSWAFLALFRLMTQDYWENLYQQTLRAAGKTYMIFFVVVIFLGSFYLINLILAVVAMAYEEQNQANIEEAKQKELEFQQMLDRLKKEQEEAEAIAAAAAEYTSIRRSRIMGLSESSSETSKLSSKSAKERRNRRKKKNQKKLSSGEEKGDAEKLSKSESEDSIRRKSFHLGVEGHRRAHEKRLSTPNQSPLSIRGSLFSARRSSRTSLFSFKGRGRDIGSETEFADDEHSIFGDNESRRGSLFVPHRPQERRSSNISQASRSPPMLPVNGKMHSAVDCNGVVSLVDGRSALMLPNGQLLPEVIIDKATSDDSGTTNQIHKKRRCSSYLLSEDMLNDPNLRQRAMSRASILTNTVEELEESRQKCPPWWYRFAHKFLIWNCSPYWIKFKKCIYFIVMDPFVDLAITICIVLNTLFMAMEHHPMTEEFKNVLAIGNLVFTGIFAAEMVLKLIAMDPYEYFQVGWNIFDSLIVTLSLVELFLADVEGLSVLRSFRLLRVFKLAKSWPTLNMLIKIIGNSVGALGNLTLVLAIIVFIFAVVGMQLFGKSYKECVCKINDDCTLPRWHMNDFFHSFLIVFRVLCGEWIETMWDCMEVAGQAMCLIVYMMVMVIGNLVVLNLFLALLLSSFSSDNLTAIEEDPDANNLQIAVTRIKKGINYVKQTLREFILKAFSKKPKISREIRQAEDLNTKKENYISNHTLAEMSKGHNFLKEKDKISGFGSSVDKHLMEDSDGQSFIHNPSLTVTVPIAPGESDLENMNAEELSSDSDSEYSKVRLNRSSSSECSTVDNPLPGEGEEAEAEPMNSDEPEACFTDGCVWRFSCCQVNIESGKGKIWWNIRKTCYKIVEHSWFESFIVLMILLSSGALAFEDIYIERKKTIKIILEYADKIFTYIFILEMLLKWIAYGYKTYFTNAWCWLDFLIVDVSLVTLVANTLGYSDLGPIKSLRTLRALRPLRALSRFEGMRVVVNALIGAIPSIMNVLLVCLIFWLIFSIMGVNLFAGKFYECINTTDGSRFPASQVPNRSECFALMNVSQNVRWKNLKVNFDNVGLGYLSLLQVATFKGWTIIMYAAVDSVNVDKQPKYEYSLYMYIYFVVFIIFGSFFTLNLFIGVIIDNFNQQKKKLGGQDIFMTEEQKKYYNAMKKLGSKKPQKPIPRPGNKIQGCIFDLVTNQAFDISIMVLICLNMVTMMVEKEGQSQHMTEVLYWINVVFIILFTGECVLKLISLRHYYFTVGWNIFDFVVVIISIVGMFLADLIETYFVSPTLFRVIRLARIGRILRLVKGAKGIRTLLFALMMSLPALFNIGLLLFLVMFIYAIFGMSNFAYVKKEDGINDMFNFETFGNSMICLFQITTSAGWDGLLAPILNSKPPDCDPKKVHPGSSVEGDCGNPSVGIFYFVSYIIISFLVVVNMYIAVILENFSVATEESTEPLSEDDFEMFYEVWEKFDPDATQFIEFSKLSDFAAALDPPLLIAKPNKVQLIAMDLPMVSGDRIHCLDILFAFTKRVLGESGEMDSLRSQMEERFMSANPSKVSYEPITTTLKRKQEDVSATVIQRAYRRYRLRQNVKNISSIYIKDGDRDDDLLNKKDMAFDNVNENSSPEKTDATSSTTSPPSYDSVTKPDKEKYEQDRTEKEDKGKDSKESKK

Take `CCCCCCCCCCC1NC(=N)NC2(CCCO2)C1C(=O)O` (racemic): the inhibition entry in [1], in experiment [2], in experiment [3], in experiment [4], in experiment [5] and in experiment [6] was “Active” in each case.

Usually IC50 stands for the concentration at which inhibition is half-maximal. Usually EC50 stands for the concentration at which the effect is half-maximal. Lower therefore signals an effect from little substance. For `CCCCCCCCCC[C@H]1NC(=N)N[C@@]2(CCCO2)[C@H]1C(=O)O`, in the experiment listed under Mus musculus, the inhibition result was “inactive”. In addition, in [7], the IC50 came to 26 nM and the inhibition result is “Dose-dependent effect”. For the same molecule, in [8], the IC50 came out at 170 nM and the inhibition result was “Dose-dependent effect”. Further, the midpoint of the response in experiment [9], the EC50, lay at 5.3 nM. In [10], the inhibition entry was “Active”.

As for `CCCCCCCCCC[C@H]1C[C@@]2(CCCO2)NC(=N)N1`, in experiment [7], the IC50 turned out to be 2.1 nM and the inhibition entry is “Dose-dependent effect”. For the same molecule, in [8], the IC50 is 2 nM and the inhibition result is “Dose-dependent effect”. Also, the midpoint of the response in experiment [9], the EC50, lay at 120 nM. The inhibition entry in experiment [10] is “Active”. Also, in experiment [11], the Ratio IC50 turned out to be 60.

Turning to `CCCCCCCCCC[C@@H]1NC(=N)N[C@]2(CCCO2)[C@@H]1C(=O)O`, in the experiment filed under Mus musculus, the inhibition entry was “inactive”. Further, the IC50 in experiment [7] is 7.5 nM; in [8] it was 35 nM. The inhibition result in [7] and in experiment [8] was “Dose-dependent effect” in each case. For the same molecule, the EC50 in experiment [9] came to 79 nM. For the same molecule, the inhibition result in [10] was “Active”.

Consider `NC1=N[C@H](O)[C@H]2[C@H]3O[C@]4(O)O[C@@H]([C@@H](O)[C@@]2(N1)[C@@H]4O)[C@]3(O)CO`, for which the inhibition entry (in the experiment filed under Mus musculus; in [12]; in [13]; in [14]; in experiment [15]; in experiment [16]) was “Active” in each case. Besides, the inhibition entry in experiment [17] is “Active”.

For `CCCCCCCCCC[C@@H]1C[C@]2(CCCO2)NC(=N)N1`, in [7], the IC50 was determined as 0.45 nM and the inhibition result was “Dose-dependent effect”. In experiment [8], the IC50 amounted to 0.28 nM and the inhibition entry is “Dose-dependent effect”. This molecule also came in with an EC50 in [9] of 12 nM. In [18], the Ratio IC50 is 43.

The values are drawn from ChEMBL document CHEMBL3997806, “Inhibition of veratridine-induced delayed inactivation of the voltage-sensitive sodium channel by synthetic analogs of crambescin B” (Bioorg Med Chem Lett, 2017).
